Holding throughout (format): cell-based
For one experiment, the system named is NCI-460. Briefly: NCI human tumor cell line screen, Lung-NSC NCI-460. The note with it: for GI-50 / TGI: Human cancer cell; for LC-50: Human cancer cells. An excerpt: (§1) Current research in the control of cancer in the United States is coordinated by the National Cancer Institute (NCI). To determine whether a substance has anti-cancer properties, the NCI has established a systematic protocol. […] The protocol, and the established statistical means for analyzing the results obtained by the standardized testing are fully described in the literature. See: Body, Dr. Michael R., Principles & Practice of Oncology, PPO Updates, Volume 3, Number 10, October 1989, for an in depth description of the testing protocol; and Paull, K. D., "Display and Analysis of Patterns of Differential Activity of Drugs Against Human Tumor Cell Lines; Development of Mean Graph and COMPARE Algorithm", Journal of the National Cancer Institute Reports, Vol. 81, No. 14, Page 1088, Jul. 14, 1989 for a description of the methods of statistical analysis. Both of these references are incorporated herein by this reference thereto.

The subject of a further experiment is P-388. Briefly: Murine P388 lymphocytic leukemia cell growth inhibition. To be noted: Mouse leukemia cell P-388. An excerpt: (§2) The extraordinary inhibition of cell growth shown by the tetrapeptide 6a-k against six major types of human cancer and against the murine P388 lymphocytic leukemia cell line has been presented in Table 1-2, below.
Another experiment deals with SF-295. Briefly: NCI human tumor cell line screen, CNS SF-295. To be noted: for GI-50 / TGI: Human cancer cell; for LC-50: Human cancer cells.
Source text: (§3) Current research in the control of cancer in the United States is coordinated by the National Cancer Institute (NCI). To determine whether a substance has anti-cancer properties, the NCI has established a systematic protocol. This protocol, which involves the testing of a substance against a standard cell line panel containing 60 human tumor cell lines, has been verified and has been accepted in scientific circles. The protocol, and the established statistical means for analyzing the results obtained by the standardized testing are fully described in the literature. See: Body, Dr. Michael R., Principles & Practice of Oncology, PPO Updates, Volume 3, Number 10, October 1989, for an in depth description of the testing protocol; and Paull, K. D., "Display and Analysis of Patterns of Differential Activity of Drugs Against Human Tumor Cell Lines; Development of Mean Graph and COMPARE Algorithm", Journal of the National Cancer Institute Reports, Vol. 81, No. 14, Page 1088, Jul. 14, 1989 for a description of the methods of statistical analysis. Both of these references are incorporated herein by this reference thereto.
as §2

In the next experiment the test system is A498. Briefly: NCI human tumor cell line screen, renal A498. To be noted: for GI-50 / TGI: Human cancer cell; for LC-50: Human cancer cells.
Source text: as §1

The subject of a further experiment is KM20L2. The experiment in a line: NCI human tumor cell line screen, colon KM20L2. The note with it: for GI-50 / TGI: Human cancer cell; for LC-50: Human cancer cells.
Source text: as §1

For the next experiment, the system named is OVCAR-3. Briefly: NCI human tumor cell line screen, ovarian OVCAR-3. The note with it: for GI-50 / TGI: Human cancer cell; for LC-50: Human cancer cells.
Source text: as §1

A further experiment deals with SK-MEL-3. The experiment in a line: NCI human tumor cell line screen, melanoma SK-MEL-3. To be noted: for GI-50 / TGI: Human cancer cell; for LC-50: Human cancer cells.
Source text: as §3, §2

“And” between values parts separate entries of the source, which are not always exact repeats. Identical values can stand only once. A value given as a limit tells only on which side of the number the result lay.

What is called TGI is the concentration at which net growth stops. With “[2S-[1 [1R*(R*),2S*],2R*[1S*,2S*]]]-N,N-dimethyl-L-valyl-N-[2-methoxy-4-[2-[1-methoxy-2-methyl-3-oxo-3-[[2-(4-bromo-phenyl)-ethyl]amino]propyl]-1-pyrrolidinyl-l-(methylpropyl)-4-oxo butyl]-N-methyl-L-valineamide [Peptide 6e]”, the GI-50 in the experiment on NCI-460 came out at 0.00027 µg/mL; in the experiment with SF-295 it was 0.00043 µg/mL; in the experiment with A498, 0.00046 µg/mL; with KM20L2, 0.00032 µg/mL; in the experiment on OVCAR-3, 0.00015 µg/mL; with SK-MEL-3, 0.00038 µg/mL. Moreover, the TGI with NCI-460 is 1.2 ng/mL; in the experiment on SF-295, more than 10 ng/mL; in the experiment on A498, more than 10 ng/mL; in the experiment with KM20L2, 4.1 ng/mL; in the experiment with OVCAR-3, 0.5 ng/mL; with SK-MEL-3 it was more than 10 ng/mL. In addition, the LC-50 with NCI-460 is more than 0.01 µg/mL; in the experiment on SF-295, more than 0.01 µg/mL; in the experiment with A498, more than 0.01 µg/mL; with KM20L2, more than 0.01 µg/mL; with OVCAR-3, 0.0094 µg/mL; in the experiment with SK-MEL-3, more than 0.01 µg/mL. In addition, the ED-50 in the experiment with P-388 was determined as 0.00515 µg/mL.
Regarding “[2S-[1 [1R*(R*),2S*],2R*[1S*, 2S*]]]-N,N-dimethyl-L-valyl-N-[2-methoxy-4-[2-[1-methoxy-2-methyl-3-oxo-3- [[2-(4-chlor-phenyl)-etthyl]amino]propyl]-1-pyrrolidinyl-1-(methylpropyl)-4-oxo butyl]-N-methyl-L-valineamide [Peptide 6d]”, the GI-50 was found to be 0.000025 µg/mL in the experiment on NCI-460; 0.000046 µg/mL in the experiment on SF-295; 0.000059 µg/mL in the experiment on A498; 0.00033 µg/mL in the experiment with KM20L2; 0.000016 µg/mL in the experiment with OVCAR-3; 0.000044 µg/mL in the experiment with SK-MEL-3. The TGI was 0.14 ng/mL in the experiment on NCI-460; more than 10 ng/mL with SF-295; 2.8 ng/mL in the experiment with A498; 2.9 ng/mL in the experiment with KM20L2; 0.05 ng/mL in the experiment on OVCAR-3; more than 10 ng/mL in the experiment on SK-MEL-3. Moreover, the LC-50 with NCI-460 was more than 0.0001 µg/mL; with SF-295 it was more than 0.0001 µg/mL; in the experiment with A498 it was more than 0.0001 µg/mL; in the experiment on KM20L2 it was more than 0.0001 µg/mL; in the experiment on OVCAR-3, 0.00096 µg/mL; in the experiment with SK-MEL-3, more than 0.0001 µg/mL. The same substance registered an ED-50 in the experiment with P-388 of 0.00372 µg/mL.
For “[2S-[1[1R*(R*),2S*],2R*[1S*,2S*,3(1S*, 2S*)]]]-N,N-dimethyl-L-valyl-N-[2-methoxy-4-[2-[1-methoxy-2- methyl-3-oxo-3-[[1-phenyl-1-hydroxy-2-propyl]methylamino]propyl]- 1-pyrrolidinyl-1-(methylpropyl)-4-oxobutyl]-N-methyl-L-valineamide valineamide [Peptide 6h]”, the GI-50 is 0.00006 µg/mL with NCI-460; 0.00031 µg/mL and 0.00034 µg/mL with SF-295. The TGI was 0.11 ng/mL in the experiment on NCI-460; more than 10 ng/mL in the experiment with SF-295; > 10 ng/mL and 9.7 ng/mL in the experiment with A498; 0.52 ng/mL in the experiment on KM20L2; more than 10 ng/mL in the experiment on SK-MEL-3. Further, the LC-50 with NCI-460, in the experiment with SF-295, with A498, in the experiment on KM20L2, with OVCAR-3 and with SK-MEL-3 was more than 0.01 µg/mL in each case.
On to “[2S-[1[1R*(R*),2S*],2R*[1S*,2S*, 3(1R*, 2S*)]]]-N,N-dimethyl-L-valyl-N-[2-methoxy-4-[2-[1-methoxy-2- methyl-3-oxo-3-[[1-phenyl-1-hydroxy-2-propyl]amino]propyl]-1-pyrrolidinyl- 1-(methylpropyl)-4-oxobutyl]-N-methyl-L-valine amide [Peptide 6i]”, for which the GI-50 with NCI-460 was 0.000025 µg/mL; in the experiment on SF-295, 0.000016 µg/mL; in the experiment with A498 it was 0.0000027 µg/mL; in the experiment with KM20L2 it was 0.00011 µg/mL; in the experiment on OVCAR-3 it was 0.000021 µg/mL; in the experiment with SK-MEL-3, 0.00058 µg/mL. The TGI in the experiment with NCI-460 is more than 10 ng/mL; in the experiment with SF-295, 0.24 ng/mL; in the experiment on A498, 0.0086 ng/mL; in the experiment with KM20L2, 7 ng/mL; with OVCAR-3, 0.042 ng/mL; in the experiment on SK-MEL-3, more than 10 ng/mL. The LC-50 in the experiment with NCI-460 is more than 0.01 µg/mL; in the experiment on SF-295, more than 0.01 µg/mL; in the experiment with A498 it was 0.00029 µg/mL; with KM20L2, more than 0.01 µg/mL; with OVCAR-3, 0.000088 µg/mL; with SK-MEL-3, more than 0.01 µg/mL. In the experiment with P-388, this substance displayed an ED-50 of 0.000503 µg/mL.
Turning to “[2S-[1[1R*(R*),2S*],2R*[1S*,2S*, 3(1S*, 2R*)]]]-N,N-dimethyl-L-valyl-N-[2-methoxy-4-[2-[1-methoxy-2-methyl-3-oxo-3-[[1-phenyl-1-hydroxy-2-propyl]amino]propyl]-1-pyrrolidinyl-1-(methylpropyl)-4-oxobutyl]-N-methyl-L-valine amide [Peptide 6k]”, the GI-50 was found to be 0.0003 µg/mL in the experiment with NCI-460; 0.0006 µg/mL in the experiment with SF-295; 0.00075 µg/mL in the experiment on A498; 0.00029 µg/mL in the experiment on KM20L2; 0.00017 µg/mL with OVCAR-3; 0.00058 µg/mL with SK-MEL-3. Further, the TGI with NCI-460 was 1 ng/mL; in the experiment on SF-295, more than 10 ng/mL; with A498 it was more than 10 ng/mL; in the experiment with KM20L2 it was 1.3 ng/mL; with OVCAR-3, 0.53 ng/mL; with SK-MEL-3, more than 10 ng/mL. Further, the LC-50 with NCI-460, with SF-295, in the experiment on A498, with KM20L2, with OVCAR-3 and in the experiment on SK-MEL-3 was more than 0.01 µg/mL in each case. The ED-50 with P-388 was determined as 0.000434 µg/mL.
As for “[2S-[1[1R*(R*),2S*],2R*[1S*,2S*]]]-N,N-dimethyl-L-valyl-N-[2-methoxy-4-[2- [1-methoxy-2-methyl-3-oxo-3-[[2-(3-chlor-phenyl)-ethyl]amino]propyl]-1-pyrrolidinyl-1-(methylpropyl)-4-oxo butyl]-N-methyl-L-valineamide [Peptide 6f]”, the GI-50 in the experiment with NCI-460 was less than 0.000001 µg/mL; in the experiment on SF-295, 0.000028 µg/mL; with A498 it was less than 0.000001 µg/mL; with KM20L2, 0.0000007 µg/mL; in the experiment with OVCAR-3 it was less than 0.000001 µg/mL; with SK-MEL-3, less than 0.000001 µg/mL. Besides, the TGI in the experiment with NCI-460 was 0.1 ng/mL; with SF-295, more than 10 ng/mL; in the experiment on A498, 1.7 ng/mL; in the experiment on KM20L2 it was 1.7 ng/mL; in the experiment with OVCAR-3, less than 0.001 ng/mL; in the experiment with SK-MEL-3, more than 10 ng/mL. For the same substance, the LC-50 is more than 0.01 µg/mL with NCI-460; more than 0.01 µg/mL with SF-295; more than 0.01 µg/mL in the experiment with A498; more than 0.01 µg/mL in the experiment with KM20L2; 0.00076 µg/mL with OVCAR-3; more than 0.01 µg/mL in the experiment on SK-MEL-3. The ED-50 with P-388 stood at 0.00225 µg/mL.

The values above are taken from patent US5635483A, “Tumor inhibiting tetrapeptide bearing modified phenethyl amides” (priority 1992, dated 1997).
